# From US20230093099A1, “COMPOUNDS AND METHODS OF TREATING CANCERS” (CULLGEN (SHANGHAI), INC., priority 2019, published 2023)
# Test system: RS4;11 cells
# Experiment: Cell viability assay (CellTiter-Glo) in RS4;11 cells
# Assay type: cell-based
# Details: Homo sapiens, 72 h; RS4;11 cells; cell viability, 3 days, CellTiter-Glo; read-out: IC50
# Outline: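 Three-day compound treatment of RS4;11 ALL cells (5000/well, 3-fold dilution series of 8 or 12 points), with IC50 from a nonlinear least-squares fit to CellTiter-Glo viability data.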
row,SMILES,IC50
1,"O=C1CCC(N2C(=O)c3cccc(NCCC(=O)N4CCC(n5cc(-c6cnc7cccc(-c8cc(F)c(CN9CCOCC9)c(F)c8)c7n6)cn5)CC4)c3C2=O)C(=O)N1 (stereo not shown) [JA-004, 4-[[3-[4-[4-[8-[3,5-Difluoro-4-(morpholinomethyl)phenyl]quinoxalin-2-yl]pyrazol-1-yl]-1-piperidyl]-3-oxo-propyl]amino]-2-(2,6-dioxo-3-piperidyl)isoindoline-1,3-dione]",3.35 µM
2,"Cc1ncsc1-c1ccc(CNC(=O)[C@@H]2C[C@@H](O)CN2C(=O)[C@@H](NC(=O)CCCCCCCCCC(=O)N2CCN(c3ccc(Nc4nc5cccc(-c6ccc(S(C)(=O)=O)cc6)n5n4)cc3)CC2)C(C)(C)C)cc1 [JA-081, 4-Hydroxy-1-{2-[11-(4-{4-[5-(4-methanesulfonyl-phenyl)-[1,2,4]triazolo[1,5-a]pyridin-2-ylamino]-phenyl}-piperazin-1-yl)-11-oxo-undecanoylamino]-3,3-dimethyl-butyryl}-pyrrolidine-2-carboxylic acid 4-(4-methyl-thiazol-5-yl)-benzylamide]",> 10 µM
3,"Cn1c(=O)n(C2CCC(=O)NC2=O)c2ccc(NCCCCCC(=O)N3CCC(n4cc(-c5cnc6cccc(-c7cc(F)c(CN8CCOCC8)c(F)c7)c6n5)cn4)CC3)cc21 (stereo not shown) [JA-288, 3-(5-((6-(4-(4-(8-(3,5-Difluoro-4-(morpholinomethyl)phenyl)quinoxalin-2-yl)-1H-pyrazol-1-yl)piperidin-1-yl)-6-oxohexyl)amino)-3-methyl-2-oxo-2,3-dihydro-1H-benzo[d]imidazol-1-yl)piperidine-2,6-dione]",> 0.5 µM
4,"Cc1cnc(Nc2ccc(N3CCN(CC(=O)NCCOCCOCCOCC(=O)N[C@H](C(=O)N4C[C@H](O)C[C@H]4C(=O)NCc4ccc(-c5scnc5C)cc4)C(C)(C)C)CC3)cc2)nc1Nc1cccc(S(=O)(=O)NC(C)(C)C)c1 [JA-220, (2S,4R)-1-((S)-2-(tert-butyl)-17-(4-(4-((4-((3-(N-(tert-butyl)sulfamoyl)phenyl)amino)-5-methylpyrimidin-2-yl)amino)phenyl)piperazin-1-yl)-4,16-dioxo-6,9,12-trioxa-3,15-diazaheptadecanoyl)-4-hydroxy-N-(4-(4-methylthiazol-5-yl)benzyl)pyrrolidine-2-carboxamide]",> 10 µM
5,"Cc1ncsc1-c1ccc(CNC(=O)[C@@H]2C[C@@H](O)CN2C(=O)[C@@H](NC(=O)CCCCCCCCNC(=O)CN2CCN(c3ccc(Nc4nc5cccc(-c6ccc(S(C)(=O)=O)cc6)n5n4)cc3)CC2)C(C)(C)C)cc1 [JA-121, (2S,4R)-1-((S)-3,3-Dimethyl-2-(9-(2-(4-(4-((5-(4-(methylsulfonyl)phenyl)-[1,2,4]triazolo[1,5-a]pyridin-2-yl)amino)phenyl)piperazin-1-yl)acetamido)nonanamido)butanoyl)-4-hydroxy-N-(4-(4-methylthiazol-5-yl)benzyl)pyrrolidine-2-carboxamide]",> 10 µM
6,"O=C1CCC(N2C(=O)c3cccc(NCCOCCOCCOCCC(=O)N4CCC(n5cc(-c6cnc7cccc(-c8cc(F)c(CN9CCOCC9)c(F)c8)c7n6)cn5)CC4)c3C2=O)C(=O)N1 (stereo not shown) [JA-049, 4-[2-[2-[2-[3-[4-[4-[8-[3,5-Difluoro-4-(morpholinomethyl)phenyl]quinoxalin-2-yl]pyrazol-1-yl]-1-piperidyl]-3-oxo-propoxy]ethoxy]ethoxy]ethylamino]-2-(2,6-dioxo-3-piperidyl)isoindoline-1,3-dione]",1.27 µM
7,"Cc1ncsc1-c1ccc(CNC(=O)[C@@H]2C[C@@H](O)CN2C(=O)[C@@H](NC(=O)CCOCCOCCNC(=O)CN2CCC(n3cc(-c4cnc5cccc(-c6cc(F)c(CN7CCOCC7)c(F)c6)c5n4)cn3)CC2)C(C)(C)C)cc1 [JA-162, (2S,4R)-1-((S)-14-(tert-Butyl)-1-(4-(4-(8-(3,5-difluoro-4-(morpholinomethyl)phenyl)quinoxalin-2-yl)-1H-pyrazol-1-yl)piperidin-1-yl)-2,12-dioxo-6,9-dioxa-3,13-diazapentadecan-15-oyl)-4-hydroxy-N-(4-(4-methylthiazol-5-yl)benzyl)pyrrolidine-2-carboxamide]",> 10 µM
8,"Cc1ncsc1-c1ccc(CNC(=O)[C@@H]2C[C@@H](O)CN2C(=O)[C@@H](NC(=O)CCCCCCC(=O)N2CCC(n3cc(-c4cnc5cccc(-c6cc(F)c(CN7CCOCC7)c(F)c6)c5n4)cn3)CC2)C(C)(C)C)cc1 [JA-052, (2S,4R)-1-[1 (2S)-2-[[8-[4-[4-[8-[3,5-Difluoro-4-(morpholinomethyl)phenyl]quinoxalin-2-yl]pyrazol-1-yl]-1-piperidyl]-8-oxo-octanoyl]amino]-3,3-dimethyl-butanoyl]-4-hydroxy-N-[[14-(4-methylthiazol-5-yl)phenyl]methyl]pyrrolidine-2-carboxamide]",> 10 µM

# The remaining lines, values ahead:
row,IC50,SMILES
1,0.181 µM,"CS(=O)(=O)c1ccc(-c2cccc3nc(Nc4ccc(N5CCN(C(=O)CCCCC#Cc6ccc7c(c6)CN(C6CCC(=O)NC6=O)C7=O)CC5)cc4)nn23)cc1 (stereo not shown) [JA-250, 3-(5-(7-(4-(4-((5-(4-(Methylsulfonyl)phenyl)-[1,2,4]triazolo[1,5-a]pyridin-2-yl)amino)phenyl)piperazin-1-yl)-7-oxohept-1-yn-1-yl)-1-oxoisoindolin-2-yl)piperidine-2,6-dione]"
2,> 10 µM,"CS(=O)(=O)c1ccc(-c2cccc3nc(Nc4ccc(N5CCN(CC(=O)NCCOCCOCCOCCOCCNc6cccc7c6C(=O)N(C6CCC(=O)NC6=O)C7=O)CC5)cc4)nn23)cc1 (stereo not shown) [JA-114, N-(14-((2-(2,6-Dioxopiperidin-3-yl)-1,3-dioxoisoindolin-4-yl)amino)-3,6,9,12-tetraoxatetradecyl)-2-(4-(4-((5-(4-(methylsulfonyl)phenyl)-[1,2,4]triazolo[1,5-a]pyridin-2-yl)amino)phenyl)piperazin-1-yl)acetamide]"
3,> 10 µM,"Cc1cnc(Nc2ccc(N3CCN(C(=O)CCCCCCNc4cccc5c4C(=O)N(C4CCC(=O)NC4=O)C5=O)CC3)cc2)nc1Nc1cccc(S(=O)(=O)NC(C)(C)C)c1 (stereo not shown) [JA-015, N-(tert-Butyl)-3-((2-((4-(4-(7-((2-(2,6-dioxopiperidin-3-yl)-1,3-dioxoisoindolin-4-yl)amino)heptanoyl)piperazin-1-yl)phenyl)amino)-5-methylpyrimidin-4-yl)amino)benzenesulfonamide]"
4,0.0328 µM,"CS(=O)(=O)c1ccc(-c2cccc3nc(Nc4ccc(N5CCN(C(=O)CCCCCOc6ccc7c(c6)CN(C6CCC(=O)NC6=O)C7=O)CC5)cc4)nn23)cc1 (stereo not shown) [JA-261, 3-(5-((6-(4-(4-((5-(4-(methylsulfonyl)phenyl)-[1,2,4]triazolo[1,5-a]pyridin-2-yl)amino)phenyl)piperazin-1-yl)-6-oxohexyl)oxy)-1-oxoisoindolin-2-yl)piperidine-2,6-dione]"
5,> 10 µM,"CS(=O)(=O)c1ccc(-c2cccc3nc(Nc4ccc(N5CCN(CC(=O)NCCCCCCCNc6cccc7c6C(=O)N(C6CCC(=O)NC6=O)C7=O)CC5)cc4)nn23)cc1 (stereo not shown) [JA-116, N-(7-((2-(2,6-Dioxopiperidin-3-yl)-1,3-dioxoisoindolin-4-yl)amino)heptyl)-2-(4-(4-((5-(4-(methylsulfonyl)phenyl)-[1,2,4]triazolo[1,5-a]pyridin-2-yl)amino)phenyl)piperazin-1-yl)acetamide]"
